According to patent publication US11311576B2, “Methods of use for CAR T cells” (Seattle Children's Hospital, priority 2018, dated 2022):

What was measured:
Test in all cases: CAR-T cell activation markers (CD69, CD137, PD1) after 24 h co-culture with EC17-preloaded targets
Format in all cases: cell-based, human
Details in all cases: targets preloaded with 100 nM EC17 30 min, E/T 1:1, 24 hours
MDA-MB-231 = tested on: MDA-MB-231
Description: (§1) To study CAR-T cell activation in the presence of FR+ tumor cell targets (FIG. 53), co-culture experiments were initially carried out with MDA-MB-231, THP1-FRβ and HOS-FRα. […] After 24 hours of co-culture, the surface expression of T cell activation markers CD69, CD137 (4-1BB), and PD1 were analyzed by flow cytometry. For T cell exhaustion studies (FIG. 54), FR+(KB, MDA-MB-231, HOS-FRα^fLuc, THP1-FRβ) and FR-negative (HOS-143b^fLuc, THP1-FG12) tumor cell lines were used as targets. Here, target cells were incubated on day 0 without or with 0.1 and 10 nM of EC17 for 30 min at 37° C. and the status of EC17 “pre-loading” was assessed by counterstaining cell-surface EC17 with an anti-FITC antibody (FIG. 61A). Three days later, the surface expression of PD1, LAG3, and TIM3 inhibitor receptors on co-cultured CAR-T cells were analyzed and higher frequencies of double- and triple-positive cells were considered approaching an exhausted phenotype.
(§2) To examine antigen-dependent CAR-T cell activation, MDA-MB-231, THP1-FRβ and HOS-FRα cells were preloaded with 100 nM EC17 over 30 min. […] After 24 hours of co-culture, we measured the surface expression of T cell activation markers CD69, CD137 (4-1BB) and PD1 (FIG. 53). […] Importantly, the mock controls T cells were not activated under these conditions. Some FR+ tumor types (e.g. KB) display a natural resistance to killing by EC17-directed CAR T cells (FIGS. 56, 58, 59, and 60), we studied T cell activation versus exhaustion as a mechanism of EC17 CAM action. Both FR+(KB, MDA-MB-231, HOS-FRα^fLuc, THP1-FRβ) and FR-negative (HOS-143b^fLuc, THP1-FG12) tumor cell lines were chosen for this purpose. HOS-FRα^fLuc expressed ˜5.6× lower level of functional FR than its parent HOS-FRα, and HOS-143b^fLuc was FR-negative similar to HOS-143b (FIG. 59A). […] Three days later, co-cultured CAR-T cells were measured for upregulation and co-expression of T cell activation/exhaustion markers PD1, LAG3 and TIM3. […]

HOS-FRα = tested on: HOS-FRα
Description: as §1, §2

THP1-FRb = tested on: THP1-FRb
Description: as §1, §2

For `NC1=NC2N=CC(CNc3ccc(C(=O)N[C@@H](CCC(=O)NCCNC(=S)Nc4ccc(-c5c6ccc(=O)cc-6oc6cc(O)ccc56)c(C(=O)O)c4)C(=O)O)cc3)=NC2C(=O)N1` (stereo partly drawn) [EC17, FA-(g)-ethylenediamine-FITC], the “CAR-T cell activation (CD69, CD137, PD1)” value (MDA-MB-231) was “strong activators of our CAR-T cells”, the “CAR-T cell activation (CD69, CD137, PD1)” value (HOS-FRα) was “strong activators of our CAR-T cells” and the “CAR-T cell activation (CD69, CD137, PD1)” value (THP1-FRb) was “did trigger CAR-T cell activation, but at lower levels”.
